Several values for one entry are separate records, joined by “and”; a condition that tells them apart may be missing. Equal values may be shown once. ± gives the uncertainty stated by the source.
Assay: xn = mol fraction of the nth substance listed

CCCCCCCCCCCCCCCC + CC(C)CC(C)(C)C
298.15 K
Details | viscosity [mPa·s]
101 kPa, x2 = 0.05562 | 2.82 ± 0.028
101 kPa, x2 = 0.1311 | 2.55 ± 0.025
101 kPa, x2 = 0.1971 | 2.371 ± 0.024
101 kPa, x2 = 0.307 | 1.95 ± 0.019
101 kPa, x2 = 0.4264 | 1.651 ± 0.017
101 kPa, x2 = 0.5472 | 1.337 ± 0.013
101 kPa, x2 = 0.6552 | 1.077 ± 0.011
101 kPa, x2 = 0.7341 | 0.9214 ± 0.0092
101 kPa, x2 = 0.8043 | 0.7819 ± 0.0079
101 kPa, x2 = 0.8275 | 0.7495 ± 0.0075
101 kPa, x2 = 0.8768 | 0.6682 ± 0.0067
101 kPa, x2 = 0.929 | 0.5871 ± 0.0059
101 kPa, x2 = 0.9511 | 0.5441 ± 0.0055
101.33 kPa, x1 = 0.101 | 0.6392 ± 0.0056
101.33 kPa, x1 = 0.199 | 0.8143 ± 0.0069
101.33 kPa, x1 = 0.2987 | 1.014 ± 0.0085
101.33 kPa, x1 = 0.4006 | 1.24 ± 0.01
101.33 kPa, x1 = 0.4999 | 1.489 ± 0.012
101.33 kPa, x1 = 0.6004 | 1.765 ± 0.015
101.33 kPa, x1 = 0.7002 | 2.062 ± 0.017
101.33 kPa, x1 = 0.8003 | 2.391 ± 0.021
101.33 kPa, x1 = 0.9001 | 2.72 ± 0.024

O=CC(Cl)(Cl)Cl + CC(C)CCO
313.15 K, 101 kPa
Details | viscosity [mPa·s]
x1 = 0.0715 | 2.825 ± 0.075
x1 = 0.2226 | 4.098 ± 0.11
x1 = 0.2851 | 4.684 ± 0.12
x1 = 0.3509 | 5.476 ± 0.14
x1 = 0.4001 | 6.07 ± 0.16
x1 = 0.4335 | 6.48 ± 0.17
x1 = 0.4573 | 6.923 ± 0.18
x1 = 0.4722 | 6.922 ± 0.18
x1 = 0.4823 | 6.831 ± 0.18
x1 = 0.4926 | 6.751 ± 0.18
x1 = 0.5251 | 6.026 ± 0.16
x1 = 0.5576 | 5.406 ± 0.14
x1 = 0.6165 | 3.935 ± 0.1
x1 = 0.7376 | 2.151 ± 0.057
x1 = 0.8868 | 1.283 ± 0.034

ClC(Cl)Cl + CC(C)OC(C)C
298.15 K, 101 kPa
Details | viscosity
x1 = 0.07 | 0.325 ± 0.003 mPa·s
x1 = 0.12 | 0.35 ± 0.003 mPa·s
x1 = 0.13 | 0.353 ± 0.003 mPa·s
x1 = 0.16 | 0.369 ± 0.004 mPa·s
x1 = 0.21 | 0.39 ± 0.004 mPa·s
x1 = 0.26 | 0.413 ± 0.004 mPa·s
x1 = 0.31 | 0.437 ± 0.004 mPa·s
x1 = 0.35 | 0.458 ± 0.004 mPa·s
x1 = 0.4 | 0.484 ± 0.004 mPa·s
x1 = 0.46 | 0.507 ± 0.005 mPa·s
x1 = 0.5 | 0.523 ± 0.005 mPa·s
x1 = 0.55 | 0.543 ± 0.005 mPa·s
x1 = 0.6 | 0.553 ± 0.005 mPa·s
x1 = 0.65 | 0.565 ± 0.005 mPa·s
x1 = 0.71 | 0.572 ± 0.005 mPa·s
x1 = 0.76 | 0.577 ± 0.005 mPa·s
x1 = 0.8 | 0.579 ± 0.005 mPa·s
x1 = 0.85 | 0.581 ± 0.005 mPa·s
x1 = 0.9 | 0.58 ± 0.005 mPa·s
x1 = 0.95 | 0.579 ± 0.005 mPa·s and 0.58 ± 0.005 mPa·s

FC(F)Cl + CC(F)F
viscosity [mPa·s], 101 kPa
Details | 293.35 K | 293.45 K | 312.95 K | 313.25 K
x1 = 0.159 | – | 0.178 ± 0.0048 | 0.1422 ± 0.0039 | –
x1 = 0.34 | – | 0.1749 ± 0.0048 | – | 0.1424 ± 0.0039
x1 = 0.534 | 0.1805 ± 0.0049 | – | – | 0.1485 ± 0.004

O=CC(Cl)(Cl)Cl + CCC(C)=O
viscosity [mPa·s], 101 kPa
Details | x1 = 0.1183 | x1 = 0.2018 | x1 = 0.3006 | x1 = 0.3959 | x1 = 0.5007 | x1 = 0.5979 | x1 = 0.6814 | x1 = 0.7599 | x1 = 0.847
298.15 K | 0.5125 ± 0.0053 | 0.5629 ± 0.0058 | 0.6247 ± 0.0063 | 0.6758 ± 0.0068 | 0.7457 ± 0.0074 | 0.8097 ± 0.0079 | 0.8541 ± 0.0084 | 0.8952 ± 0.0087 | 0.9503 ± 0.0092
323.15 K | 0.3989 ± 0.0043 | 0.4323 ± 0.0046 | 0.4784 ± 0.0051 | 0.5132 ± 0.0054 | 0.5619 ± 0.0058 | 0.6053 ± 0.0062 | 0.6241 ± 0.0064 | 0.6588 ± 0.0067 | 0.7035 ± 0.0071

O=CC(Cl)(Cl)Cl + CCCC(C)=O
viscosity [mPa·s], 101 kPa
Details | x1 = 0.1199 | x1 = 0.2489 | x1 = 0.3714 | x1 = 0.5058 | x1 = 0.6071 | x1 = 0.7288 | x1 = 0.8116 | x1 = 0.9001
298.15 K | 0.524 ± 0.0054 | 0.595 ± 0.0061 | 0.6722 ± 0.0067 | 0.7399 ± 0.0074 | 0.8153 ± 0.008 | 0.8727 ± 0.0085 | 0.9343 ± 0.0091 | 0.9935 ± 0.0096
323.15 K | 0.4084 ± 0.0044 | 0.458 ± 0.0049 | 0.5112 ± 0.0053 | 0.5571 ± 0.0058 | 0.6 ± 0.0062 | 0.6402 ± 0.0065 | 0.6822 ± 0.0069 | 0.7258 ± 0.0073

— the CheMixHub viscosity set
